Results on one compound are retold here after patent publication US20080070852A1, “3-Beta-D-Ribofuranosylthiazolo[ 4,5-D] Pyridimine Nucleosides and Uses Thereof” (priority 2004, published 2008).

Like-named read-outs stand apart in the source and are kept apart here.

Broadly, the NOAEL is the highest dose or exposure tested at which no adverse effect was seen. The term AUC(0-t) denotes exposure summed from dosing to a finite time, without extrapolation to infinity. Read a low AUC(0-t) as less exposure.

Series [1] concerns beagle dogs. Nature of the series: Toxicology studies in beagle dogs (GI tolerance). The settings on record: dogs.
Method: (§1) Formal toxicology studies of intravenously administered isatoribine and orally administered isatoribine and val-isatoribine were conducted in beagle dogs.
(§2) In each case the compound was administered as a solution, by gavage or by intravenous infusion. Multiple parameters were assessed, as is customary in a toxicology study. In the studies providing higher potential exposure to isatoribine, the plasma concentration of isatoribine was assessed by a LC/MS method.
Series [2] is described as follows: Toxicology studies in beagle dogs (GI tolerance). Conditions: beagle, dog, iv; for AUC(0-t): plasma.
Method: as §1, §2
Series [3] concerns beagle dogs. Conditions: dog, in vivo, iv, 12.5 mg/kg.
Method: as §1, §2
Series [4] relates to interferon alpha (Mu-IFN-α). Kind of series: Murine interferon alpha in plasma of dosed mice. The format is in vivo. An excerpt:
The normal mouse provides a useful system for the assessment of the degree to which the inventions described herein provide material improvement in the oral delivery of 1 (isatoribine). Not only can one measure the plasma concentrations of isatoribine arising from oral administration of the said prodrug(s) but also the extensive immunological research conducted in the mouse has provided reagents suitable for measuring the levels of interferon alpha, a cytokine of interest reflecting one of the desired biologic activities of isatoribine.
Table 1 records the results of an assay for murine interferon alpha in the plasma of mice that were dosed two times with isatoribine, formulated in bicarbonate, at a level of 50 mg/kg by the oral route.
Table 2 records the results of assays for murine interferon alpha in the plasma of mice that first were dosed with bicarbonate and then four hours later were dosed orally with isatoribine, formulated in bicarbonate, at a level of 50 mg/kg. Interferon was reported in the plasma from four mice, including two that had received the bicarbonate vehicle dose.
Table 3 records the results of assays for murine interferon alpha in the plasma of mice that were dosed orally with val-isatoribine, dissolved in bicarbonate, at a dose that is equivalent to 50/mg/kg of isatoribine on a molar basis. […] Interferon was detected in all mice assayed at a given time point, indicating the reliability of the effect following val-isatoribine administration.
In other experiments, plasma levels of isatoribine and interferon alpha were measured in mice that were dosed with isatoribine by the intravenous route, and these levels were compared to the levels of isatoribine and interferon alpha arising after oral administration of val-isatoribine. […] Thus, oral val-isatoribine provides levels of isatoribine and interferon that are approximately 50% of those observed after intravenous administration of isatoribine itself.

The next series is described as follows: in vivo. The settings on record: beagle, dog, iv, 12.5 mg/kg.
Series [5] concerns beagle dogs. Conditions: cited from earlier work.
Series [6] can be described thus: Recovery of 1 in urine after intravenous administration. Type of series: in vivo. Conditions: read-out: recovery of administered dose in the urine as intact 1. Here is the method: Reference values for compound I were obtained by similar procedures after either oral or intravenous dosing. […] For this reason, in some experiments the amount of 1 in urine collected over a period of 24 hours after dosing was used to assess compounds.

The mark [7] stands for this setting: IV Isatoribine, applied dose 25 mg/kg.
[8] abbreviates: dogs, Oral Isatoribine, applied dose 2.5 mg/kg.

Method for in vivo: as §1, §2

Take `Nc1nc2c(sc(=O)n2[C@@H]2O[C@H](CO)[C@@H](O)[C@H]2O)c(=O)[nH]1` [Compound 1, 5-amino-3-β-D-ribofuranosylthiazolo[4,5-d]pyrimidine-2,7-dione, reference compound]: the “GI lesions” value in the series on beagle dogs [1] (intravenous, necropsy or histopathologic evaluation) was “No lesions were seen in the GI tract”. The “Emesis or loose stool” value in the series with beagle dogs [1] (setting [7]), with beagle dogs [3] and in the series on beagle dogs [5] (setting [8]) was “Neg” each time. Moreover, the “GI lesions or irritation” value was “Neg” with beagle dogs [1] (setting [7]); “Neg” with beagle dogs [1] (IV Isatoribine, applied dose 50 mg/kg); “Neg” in the series on beagle dogs [1] (IV Isatoribine, applied dose 100 mg/kg); “Neg” in the series with beagle dogs [3]; “Neg” in the series on beagle dogs [5] (setting [8]); “Neg” in the series with beagle dogs [5] (dogs, Oral Isatoribine, applied dose 5 mg/kg). The compound also showed an NOAEL in series [2] (in vivo) of 12.5 mg/kg. For the same compound, the AUC(0-t) in series [2] (25 mg/kg) was found to be 42800 ng·h/mL; in series [2] (50 mg/kg), 87800 ng·h/mL; in series [2] (100 mg/kg), 209000 ng·h/mL; in “in vivo” it was 19500 ng·h/mL. Also, the “interferon in plasma” value in series [4] (mice, two oral 50 mg/kg doses, interval four hours) is recorded as “no interferon was measurable”. The “mice with interferon detected in plasma” value in series [4] (oral dosing, studies of Tables 1-3) is recorded as 4 of the 114. Also, the limiting toxicity entry in the series on beagle dogs [5] (dog, in vivo, po) was “gastrointestinal lesions”. In the series on beagle dogs [5] (oral, 10 mg/kg, gross histopathologic evaluation), the “dogs with multiple, scattered red lesions on the intestinal mucosa” value is listed as “four of eight dogs”. Moreover, the dose excreted in series [6] was > 75%.
